Measured values: article PMC11758220, “Identification of a Privileged Scaffold for Inhibition of Sterol Transport Proteins through the Synthesis and Ring Distortion of Diverse, Pseudo-Natural Products” (ACS Central Science, 2025)

How the values were obtained:
STARD3 = biological target: T1, STARD3 (Homo sapiens, UniProt Q14849); design: method as in Depta et al.[43]; conditions: data reproduced; ref Depta et al.[43]; read-out: STARD3 Kd,app (DSF); cited from earlier work
T1 construct: STARD3(216-444); made in house; host or cells: E. coli BL21(DE3)
T1 sequence (Q14849 216-444): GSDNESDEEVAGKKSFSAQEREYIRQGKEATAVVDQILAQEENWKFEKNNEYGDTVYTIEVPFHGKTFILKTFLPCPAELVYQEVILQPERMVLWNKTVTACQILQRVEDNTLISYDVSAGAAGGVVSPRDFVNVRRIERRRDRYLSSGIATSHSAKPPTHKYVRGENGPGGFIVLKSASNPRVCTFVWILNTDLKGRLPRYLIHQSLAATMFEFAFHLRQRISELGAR

STARD4 = biological target: T2, STARD4 (Homo sapiens, UniProt Q96DR4, C75S); design: method as in Depta et al.[43]; conditions: data reproduced; ref Depta et al.[43]; read-out: STARD4 Kd,app (DSF); cited from earlier work
T2 construct: STARD4(2-205; C75S); made in house; host or cells: E. coli BL21(DE3)
T2 sequence (Q96DR4 2-205 C75S): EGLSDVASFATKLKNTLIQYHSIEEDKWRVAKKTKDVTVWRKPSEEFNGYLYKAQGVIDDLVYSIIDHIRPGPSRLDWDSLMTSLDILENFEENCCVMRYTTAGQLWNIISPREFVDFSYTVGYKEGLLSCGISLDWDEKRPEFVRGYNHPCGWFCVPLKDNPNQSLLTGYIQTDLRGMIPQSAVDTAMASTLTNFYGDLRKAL

STARD1 = biological target: T3, STARD1 (Homo sapiens, UniProt P49675); experiment: Effect on intrinsic protein fluorescence, STARD1; conditions: protein 1 µM, excitation 280 nm
T3 construct: STARD1(66-284); made in house; host or cells: E. coli BL21(DE3)
T3 sequence (P49675 66-284): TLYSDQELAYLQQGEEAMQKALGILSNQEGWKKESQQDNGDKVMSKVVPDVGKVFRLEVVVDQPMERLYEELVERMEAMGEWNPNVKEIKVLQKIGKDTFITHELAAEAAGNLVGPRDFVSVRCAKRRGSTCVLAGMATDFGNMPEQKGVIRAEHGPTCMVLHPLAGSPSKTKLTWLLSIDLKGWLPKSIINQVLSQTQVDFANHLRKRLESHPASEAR
Experimental: Effect of spirooxepinoindoles on intrinsic protein fluorescence
Figure S12: Spirooxepinoindoles 21a and 15f affect intrinsic protein fluorescence in dose-dependent fashion:
Respective proteins (1 µM) were incubated with the compounds at different doses. Proteins were excited at 280 ± 10 nm and fluorescence spectra were measured from 315 ± 20 nm to 600 ± 20 nm with a step size of 2 nm. A) STARD1 and 21a. B) ORP1 and 21a. C) ORP2 and 21a. D) ORP2 and 15f.
(1 picture or pasted object on this page, not shown here)
Superdex 75 pg (Cytiva) using an ÄKTA Explorer (Cytiva) in buffer containing 10 mM Tris -HCl, pH 8, 150 mM NaCl, 5 % glycerol and 2 mM DTT.
Fluorescence intensity and polarisation
Fluorescence intensity and polarisation (FP) experiments were performed in a buffer containing 20 mM HEPES pH 7.5, 300 mM NaCl, 0.01 %v/v Tween-20, 0.5% glycerol and 2 mM DTT in a final volume of 30 µl in black, flat-bottom, non-binding 384-well plates (Corning). All compounds were dispensed using the LabCyte Echo 550 Liquid handler. […] For competition experiments, 20 nM 22-NBD-cholesterol or 80 nM 25-NBD-cholesterol was mixed with protein and incubated with desired concentrations of screening compounds (Table S4) The fluorescence polarisation signal was measured using a Spark Cyto multimode microplate reader (Tecan) with filters set at 485 ± 20 nm for excitation and at 535 ± 20 nm for emission. […]

Compound: CCN(CC)CCO[C@H]1CC[C@@]2(C)C(=CC[C@@H]3[C@@H]2CC[C@]2(C)C(=O)CC[C@@H]32)C1 [Compound U18666A, reference compound]
- Kd (STARD3): > 30 µM
- Kd (STARD4): > 30 µM

Compound: C[C@]12CC[C@@H]3C[C@H]1CC[C@@]21C(=Nc2ccc(-c4ccccc4)cc21)O3 [Compound 21a]
- Quenching of intrinsic fluorescence of STARD1 (STARD1): dose-dependently quenches
